Reference: PMC8961538, “N-Acylated and N-Alkylated 2-Aminobenzothiazoles Are Novel Agents That Suppress the Generation of Prostaglandin E2” (Biomolecules, 2022)
One block for each molecule: values may come before it.

Legend:
[1] = tested on: GIVA cPLA2; set-up: method as in PMID 16203828; conditions: in vitro; cited from earlier work
[2] = tested on: hyperalgesia; set-up: method as in PMID 16203828; conditions: in vivo; cited from earlier work
[3] = tested on: GVIA iPLA2; set-up: method as in PMID 16203828; conditions: in vitro; cited from earlier work
[4] = tested on: spinal PGE2 release; set-up: method as in PMID 16203828; conditions: in vivo; cited from earlier work
[5] = tested on: PGE2 generation in CD4+ T cells; set-up: method as in PMID 25213337; conditions: cited from earlier work
[6] = tested on: allodynia after facial carrageenan injection; conditions: after facial carrageenan injection in mice; cited from earlier work
[7] = tested on: PGE2 generation in rat mesangial cells; conditions: cited from earlier work; for EC50: read-out: EC50, inhibition of PGE2 formation
[8] = tested on: NO formation in cytokine-stimulated rat mesangial cells; experiment: IL-1/Fk-stimulated nitrite (NO) formation in rat mesangial cells, Griess assay; assay type: cell-based; conditions: IL-1 plus Fk, 24 h; nitrite in supernatants
Description: Figure S1. Effect of the inhibitor 19a on IL-1/Fk-stimulated nitrite formation in rat mesangial
Cells were pretreated for 20 min with the indicated concentrations of 19a and then stimulated for
24 h in the absence (-) or presence (+) of 1 nM interleukin 1β (IL-1) plus 5 µM forskolin (Fk).
Nitrite was quantified in supernatants using Griess assay as previously described.1 Data are
presented as mM of nitrite and are means +/- S.D. (n = 3).
1β induction of nitric oxide synthase in renal mesangial cells. Eur. J. Pharmacol. 1993,
(1 picture or pasted object on this page, not shown here)

[9] = tested on: PGE2 generation in rat mesangial cells; experiment: Suppression of IL-1β/forskolin-stimulated PGE2 generation in rat renal mesangial cells; assay type: cell-based; conditions: Rattus norvegicus, Mesangial cell, 24 h
Description: Rat renal mesangial cells (clone MZ B1), isolated and characterized as previously described, were cultivated in RPMI 1640 medium supplemented with 10% fetal bovine serum; 10 mM 4-(2-hydroxyethyl)-1-piperazineethanesulfonic acid (HEPES), pH 7.4; 6 µg/mL of bovine insulin; 5 µg/mL of transferrin; 5 nM sodium selenite; 100 units/mL of penicillin; and 100 µg/mL of streptomycin. The cells were incubated for 4 h in Dulbecco’s modified Eagle’s medium (DMEM) containing 10 mM HEPES, pH 7.4, and 0.1 mg/mL of fatty acid-free bovine serum albumin (BSA), prior to stimulation.
Confluent mesangial cells in 24-well plates were pretreated for 20 min with varying concentrations of inhibitors and then stimulated for 24 h in a total volume of 400 µL of DMEM containing 0.1 mg/mL of BSA, in the absence or presence of 1 nM interleukin 1β (IL-1) plus 5 μM forskolin (Fk). Thereafter, the supernatants were collected and centrifuged for 5 min at 1000× g. The PGE2 in the supernatant was quantified using an enzyme-linked immunoassay (Enzo Life Sciences, Lörrach, Germany) following the manufacturer’s recommendations.
Statistical analysis of the data was performed using one-way analysis of variance (ANOVA) followed by a Bonferroni’s post hoc test for multiple comparisons (GraphPad Prism 8.4.3., San Diego, CA, USA). The half maximal effective concentrations (EC50) of the inhibitors were calculated using the same software.

[10] = molecular target: T1, human recombinant group VIA phospholipase A2 (GVIA iPLA2) (Homo sapiens, UniProt O60733); experiment: Lipidomics-based mixed micelle PLA2 activity assay, GVIA iPLA2; assay type: biochemical; conditions: mole fraction of inhibitor in total substrate interface required to inhibit enzyme activity by 50%
T1 sequence (O60733 1-806): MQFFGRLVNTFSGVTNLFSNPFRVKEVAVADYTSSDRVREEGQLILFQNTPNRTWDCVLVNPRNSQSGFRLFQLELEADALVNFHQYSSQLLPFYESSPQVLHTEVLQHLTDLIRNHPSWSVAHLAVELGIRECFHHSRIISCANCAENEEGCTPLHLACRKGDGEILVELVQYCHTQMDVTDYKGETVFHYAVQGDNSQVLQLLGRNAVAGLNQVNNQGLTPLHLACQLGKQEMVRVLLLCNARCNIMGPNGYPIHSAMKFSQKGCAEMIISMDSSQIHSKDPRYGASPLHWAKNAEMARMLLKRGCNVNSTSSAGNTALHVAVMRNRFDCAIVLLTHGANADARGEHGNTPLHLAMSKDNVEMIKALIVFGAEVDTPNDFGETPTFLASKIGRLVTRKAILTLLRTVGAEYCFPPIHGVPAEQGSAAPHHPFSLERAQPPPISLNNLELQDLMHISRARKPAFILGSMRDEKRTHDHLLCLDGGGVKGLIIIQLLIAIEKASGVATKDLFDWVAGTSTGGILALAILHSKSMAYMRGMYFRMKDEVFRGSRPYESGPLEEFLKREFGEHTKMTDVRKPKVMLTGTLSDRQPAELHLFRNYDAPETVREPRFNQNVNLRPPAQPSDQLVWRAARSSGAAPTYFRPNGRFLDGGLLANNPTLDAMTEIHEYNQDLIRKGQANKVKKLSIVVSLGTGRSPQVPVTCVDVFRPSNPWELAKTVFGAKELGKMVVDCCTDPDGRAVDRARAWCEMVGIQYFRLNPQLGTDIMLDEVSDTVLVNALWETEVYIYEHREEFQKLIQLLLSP

[11] = tested on: rat-paw carrageenan-induced edema; experiment: Rat-paw carrageenan-induced-edema assay; assay type: in vivo; conditions: 0.01 mmol/kg, same dose as indomethacin
Description: The anti-inflammatory activities of selected aminobenzothiazole derivatives were determined by employing the rat-paw carrageenan-induced-edema assay, as previously described. Only male animals (180–220 g body weight) were used. Each group was composed of five animals. The animals were divided into three five-membered groups, and all the tested compounds were suspended in water (0.01 mmol/mL/kg body weight), with a few drops of Tween 80, and ground in a mortar before being administered intraperitoneally simultaneously. After treatment with the tested compounds in group 1, a 2nd group was used as a positive control (indomethacin at 0.01 mmol/mL/kg body weight, i.p.), and another group (3rd) served as the control in which water was administered (negative control). The compounds were injected intraperitoneally at the same time as carrageenan was given by intradermal injection. The rats were euthanized 3.5 h post-injection. The weight of the uninjected with carrageenan paw was subtracted from the weight of the injected paw for each animal. The change in paw weight for the treated animals was compared to that for the control animals and expressed as the percent inhibition of edema. The values of CPE % are the means from three different experiments with standard errors of the mean less than 10%. The statistical significance of the results was established with Student’s t-test, for * p < 0.01 and ** p < 0.05. All the animal experiments performed in the manuscript were conducted in compliance with institutional guidelines. Our studies were in accordance with recognized guidelines on animal experimentation (guidelines for the care and use of laboratory animals published by the Greek Government 160/1991, based on EU regulations 86/609). The rats were kept in the Centre of the School of Veterinary Medicine (EL54 BIO42), Aristotle University of Thessaloniki, which is registered by the official state veterinary authorities (presidential degree 56/2013, in harmonization with the European Directive 2010/63/EEC). The experimental protocols were approved by the Animal Ethics Committee of the Prefecture of Central Macedonia (no. 270079/2500).

SMILES: CCCCCCCCCCCCCCC(=O)C(=O)NCCCC(=O)OCC [AX048, ethyl 4-(2-oxohexadecanamido)butanoate]
XI(50) for GIVA cPLA2 [1]: 0.022 mole fraction | Anti-hyperalgesic activity [2]: anti-hyperalgesic activity | XI(50) for GVIA iPLA2 [3]: 0.027 mole fraction | Inhibition of spinal PGE2 release [4]: inhibits spinal PGE2 release

SMILES: O=C(CCCCc1ccc2ccccc2c1)C(F)(F)F [FKGK18, 1,1,1-trifluoro-6-(2-naphthalenyl)-2-hexanone]
Inhibition of generation of PGE2 [5]: inhibit the generation of PGE2

SMILES: CCCCC/C=C\C/C=C\C/C=C\C/C=C\CCCC(=O)C(F)(F)F [arachidonoyl trifluoromethyl ketone]
Effect on allodynia [6]: modulates allodynia | Inhibition of cytokine-stimulated generation of PGE2 ([7]; rat mesangial cells): inhibits

IC50 ([9]; 0.1 to 3 µM, IL-1β plus forskolin, read-out: EC50 (μM), inhibition of PGE2 generation): 0.118 µM | XI(50) for GVIA iPLA2 [10]: 0.03 mole fraction | melting point: 112 to 114 °C
SMILES: c1ccc2cc(CCCNc3nc4ccccc4s3)ccc2c1 [Compound 19a, N-(3-(Naphthalen-2-yl)Propyl)Benzo[d]Thiazol-2-Amine]
Effect on NO production [8]: No effect | inhibition at 3 µM ([9]; 3 μM, 1 nM IL-1β plus 5 μM forskolin): > 80% | In vivo anti-inflammatory activity compared with indomethacin [11]: higher than that of indomethacin | In vivo anti-inflammatory activity compared with indomethacin ([11]; listed as GK543): greater than that of indomethacin

SMILES: O=C(CCCCc1ccc2ccccc2c1)c1nc2ccccc2o1 [Compound 2]
EC50 ([7]; rat mesangial cells): 790 nM

SMILES: O=C(CCCCc1ccc2ccccc2c1)c1nc2ccccc2s1 [Compound 1]
% inhibition of PGE2 generation ([7]; comparison value for compound 1): 85% | EC50 ([7]; rat mesangial cells): 710 nM
